The nature of one data set: in vitro. The note with it: African green monkey.
The subject of the next data set is SARS-COV-2. Description: microbe, parasite or virus in culture. The format is cell-based. Also on record: SI (Selectivity Index, CC50/IC50): unit not given here. The note with it: for SI (Selectivity Index, CC50/IC50): SARS-COV-2, values >50 assumed to be 50; for IC50: read-out: SARS-COV-2 inhibition (IC50).
Where [1] appears, read: Severe acute respiratory syndrome coronavirus 2, Vero cells, 24 hours infection.
Where [2] appears, read: Severe acute respiratory syndrome coronavirus 2, Vero, 24 h.

Like-named read-outs stand apart in the source and are kept apart here. A value given as a limit tells only on which side of the number the result lay.

As a reminder, the IC50 is the midpoint of a concentration-inhibition curve.

Compound `CCN(Cc1ccccc1C(F)(F)F)c1ccc(-c2c3c(cc4cc(OC)c(OC)cc24)COC3=O)cn1` [Example 209, 9-(6-(ethyl(2-(trifluoromethyl)benzyl)amino)pyridin-3-yl)-6,7-dimethoxynaphtho[2,3-c]furan-1(3H)-one] came in with a CC50 in “in vitro” of more than 50 µM. For the same compound, the “SI (Selectivity Index, CC50/IC50)” value with SARS-COV-2 is 14.52. For the same compound, the half-inhibitory concentration (IC50) in the data set on SARS-COV-2 (setting [1]) was 3.44 µM.

Regarding `COc1cc2cc3c(c(-c4ccc5nc(C)ccc5c4)c2cc1OC)C(=O)OC3` [Example 116, 6,7-dimethoxy-9-(2-methylquinolin-6-yl)naphtho[2,3-c]furan-1(3H)-one], the CC50 in “in vitro” is more than 50 µM. Further, the “SI (Selectivity Index, CC50/IC50)” value with SARS-COV-2 came to 43.72. Besides, the IC50 in the data set with SARS-COV-2 (setting [1]) came to 1.14 µM.

Take `COc1cc2cc3c(c(-c4ccc(N(C)Cc5cccnc5)cc4)c2cc1OC)C(=O)OC3` [Example 255, 6,7-dimethoxy-9-(4-(methyl(pyridin-3-ylmethyl)amino)phenyl)naphtho[2,3-c]furan-1(3H)-one]: the CC50 in “in vitro” is more than 50 µM. For the same compound, the “SI (Selectivity Index, CC50/IC50)” value in the data set with SARS-COV-2 is 15.74. The IC50 in the data set with SARS-COV-2 (setting [1]) came out at 3.18 µM.

On to `COc1cc2cc3c(c(-c4ccc(N5CCC(F)(F)CC5)nc4)c2cc1OC)C(=O)OC3` [Example 122, 9-(6-(4,4-difluoropiperidin-1-yl)pyridin-3-yl)-6,7-dimethoxynaphtho[2,3-c]furan-1(3H)-one], for which the CC50 in the data set “in vitro” was more than 50 µM. Besides, the “SI (Selectivity Index, CC50/IC50)” value in the data set with SARS-COV-2 is reported as 512.00. Moreover, the half-maximal inhibitory concentration (IC50) with SARS-COV-2 (setting [1]) is 0.17 µM.

In the data set “in vitro”, `COc1cc2cc3c(c(-c4ccnc(Cl)c4)c2cc1OC)C(=O)OC3` [Example 184, 9-(2-chloropyridin-4-yl)-6,7-dimethoxynaphtho[2,3-c]furan-1(3H)-one] returned a CC50 of more than 50 µM. Further, the “SI (Selectivity Index, CC50/IC50)” value with SARS-COV-2 is on record as 1.0. Further, in the data set with SARS-COV-2 (setting [1]), the IC50 is more than 50 µM.

Regarding `COc1cc2cc3c(c(-c4ccc(F)nc4)c2cc1OC)C(=O)OC3` [Example 35, 9-(6-fluoropyridin-3-yl)-6,7-dimethoxynaphtho[2,3-c]furan-1(3H)-one], the CC50 in “in vitro” is more than 50 µM. The “SI (Selectivity Index, CC50/IC50)” value in the data set with SARS-COV-2 stood at 1.00. Moreover, in the data set with SARS-COV-2 (setting [1]), the IC50 is more than 50 µM.

The compound `COc1cc2c(OC)c3c(c(-c4ccc(N(C)[C@H]5CCc6c(cccc6OC)C5)nc4)c2cc1OC)COC3=O` [Example 266, (S)-6,7,9-trimethoxy-4-(6-((5-methoxy-1,2,3,4-tetrahydronaphthalen-2-yl)(methyl)amino)pyridin-3-yl)naphtho[2,3-c]furan-1(3H)-one] had a CC50 in “in vitro” of more than 50 µM. In the data set with SARS-COV-2, the “SI (Selectivity Index, CC50/IC50)” value was 1.00. In addition, in the data set on SARS-COV-2 (setting [1]), the IC50 is more than 50 µM.

`COc1cc2cc3c(c(-c4ccnc5ccc(F)cc45)c2cc1OC)C(=O)OC3` [Example 148, 9-(6-fluoroquinolin-4-yl)-6,7-dimethoxynaphtho[2,3-c]furan-1(3H)-one] yielded a CC50 in the data set “in vitro” of more than 50 µM. For the same compound, the “SI (Selectivity Index, CC50/IC50)” value with SARS-COV-2 amounted to 1.0. The concentration for half-maximal inhibition (IC50) in the data set on SARS-COV-2 (setting [1]) was more than 50 µM.

For the compound `COc1cc2cc3c(c(-c4ccc(N5CCN(C)CC5)nc4)c2cc1OC)C(=O)OC3` [Example 167, 6,7-dimethoxy-9-(6-(4-methylpiperazin-1-yl)pyridin-3-yl)naphtho[2,3-c]furan-1(3H)-one], the CC50 in “in vitro” is more than 50 µM. Besides, in the data set on SARS-COV-2, the “SI (Selectivity Index, CC50/IC50)” value was found to be 3.73. The IC50 in the data set with SARS-COV-2 (setting [1]) turned out to be 14.8 µM.

Compound `COc1cc2cc3c(c(N4CCN(c5ccc(Br)cn5)CC4)c2cc1OC)C(=O)OC3` [Example 129, 9-(4-(5-bromopyridin-2-yl)piperazin-1-yl)-6,7-dimethoxynaphtho[2,3-c]furan-1(3H)-one] showed a CC50 in “in vitro” of more than 50 µM. Moreover, the “SI (Selectivity Index, CC50/IC50)” value with SARS-COV-2 worked out at 2.29. The half-inhibitory concentration (IC50) with SARS-COV-2 (setting [1]) was 21.8 µM.

`COc1cc2cc3c(c(-c4ccc(N[C@H]5CCc6c(cccc6OC)C5)nc4)c2cc1OC)C(=O)OC3.Cl` [Example 172, (S)-6,7-dimethoxy-9-(6-((5-methoxy-1,2,3,4-tetrahydronaphthalen-2-yl)amino)pyridin-3-yl)naphtho[2,3-c]furan-1(3H)-one] came in with a CC50 in the data set “in vitro” of more than 50 µM. Moreover, in the data set with SARS-COV-2, the “SI (Selectivity Index, CC50/IC50)” value is listed as 1.0. The IC50 in the data set on SARS-COV-2 (setting [2]) was more than 50 µM.

In turn, `COc1ccc(CN(C)c2ccc(-c3c4c(cc5cc(OC)c(OC)cc35)COC4=O)cn2)c(OC)c1.Cl` [Example 232, 9-(6-((2,4-dimethoxybenzyl)(methyl)amino)pyridin-3-yl)-6,7-dimethoxynaphtho[2,3-c]furan-1(3H)-one] gave a CC50 in the data set “in vitro” of more than 50 µM. Moreover, in the data set on SARS-COV-2, the “SI (Selectivity Index, CC50/IC50)” value is 15.36. The IC50 in the data set with SARS-COV-2 (setting [2]) is 3.25 µM.

Compound `COc1ccc2c(-c3c4c(cc5cc(OC)c(OC)cc35)COC4=O)cc(C)nc2c1` [Example 141, 6,7-dimethoxy-9-(7-methoxy-2-methylquinolin-4-yl)naphtho[2,3-c]furan-1(3H)-one] displayed a CC50 in the data set “in vitro” of more than 50 µM. For the same compound, the “SI (Selectivity Index, CC50/IC50)” value with SARS-COV-2 came to 2.07. In the data set with SARS-COV-2 (setting [1]), the 50% inhibitory concentration (IC50) was 24.2 µM.

Compound `COc1cc2cc(CO)c(C(=O)[O-])c(-c3cc4c(cc3O)OCO4)c2cc1OC.[Na+]` [Example 212, 1-(6-hydroxybenzo[d][1,3]dioxol-5-yl)-3-(hydroxymethyl)-6,7-dimethoxy-2-naphthoate sodium (I)] came in with a CC50 in “in vitro” of more than 50 µM. In the data set with SARS-COV-2, the “SI (Selectivity Index, CC50/IC50)” value came to 2.81. In addition, in the data set with SARS-COV-2 (setting [1]), the IC50 was found to be 17.8 µM.

`COc1cc2cc3c(c(-c4ccc(N(C)c5nnc(C)s5)nc4)c2cc1OC)C(=O)OC3` [Example 214, 6,7-dimethoxy-9-(6-(methyl(5-methyl-1,3,4-thiadiazol-2-yl)amino)pyridin-3-yl)naphtho[2,3-c]furan-1(3H)-one]: the CC50 in the data set “in vitro” was more than 50 µM. Also, in the data set with SARS-COV-2, the “SI (Selectivity Index, CC50/IC50)” value stood at 1.00. Further, in the data set with SARS-COV-2 (setting [1]), the half-maximal inhibitory concentration (IC50) was more than 50 µM.

For the compound `COc1cc2cc3c(c(-c4cnc(N5CCc6sccc6C5)nc4)c2cc1OC)C(=O)OC3` [Example 12, 9-(2-(6,7-dihydrothieno[3,2-c]pyridin-5 (4H)-yl)pyrimidin-5-yl)-6,7-dimethoxynaphtho[2,3-c]furan-1(3H)-one], the CC50 in the data set “in vitro” is more than 50 µM. In the data set with SARS-COV-2, the “SI (Selectivity Index, CC50/IC50)” value was 60.38. In addition, in the data set on SARS-COV-2 (setting [1]), the IC50 is 0.83 µM.

With `CCN(c1ccc(-c2c3c(cc4cc(OC)c(OC)cc24)COC3=O)cn1)C1CCCC1` [Example 191, 9-(6-(cyclopentyl(ethyl)amino)pyridin-3-yl)-6,7-dimethoxynaphtho[2,3-c]furan-1(3H)-one], in “in vitro”, the CC50 was more than 50 µM. Also, in the data set on SARS-COV-2, the “SI (Selectivity Index, CC50/IC50)” value is 35.47. Besides, in the data set on SARS-COV-2 (setting [1]), the IC50 was 1.41 µM.

In the data set “in vitro”, `COc1cc2cc3c(c(-c4cnc(N(C)c5cccc(C(F)(F)F)c5)nc4)c2cc1OC)C(=O)OC3` [Example 216, 6,7-dimethoxy-9-(2-(methyl(3-(trifluoromethyl)phenyl)amino)pyrimidin-5-yl)naphtho[2,3-c]furan-1(3H)-one] registered a CC50 of more than 50 µM. Moreover, the “SI (Selectivity Index, CC50/IC50)” value in the data set on SARS-COV-2 was 52.13. Also, the half-inhibitory concentration (IC50) in the data set with SARS-COV-2 (setting [1]) amounted to 0.96 µM.

In the data set “in vitro”, `COc1cc2cc3c(c(-c4cnc(N5CCN(C)CC5)nc4)c2cc1OC)C(=O)OC3` [Example 7] returned a CC50 of more than 50 µM. The “SI (Selectivity Index, CC50/IC50)” value with SARS-COV-2 is 3.74. Also, the IC50 with SARS-COV-2 (setting [1]) was 13.4 µM.

The compound `COc1cc2cc3c(c(-c4ccc(N(C)CC(C)C)nc4)c2cc1OC)C(=O)OC3` [Example 181, 9-(6-(isobutyl(methyl)amino)pyridin-3-yl)-6,7-dimethoxynaphtho[2,3-c]furan-1(3H)-one] yielded a CC50 in the data set “in vitro” of more than 50 µM. The “SI (Selectivity Index, CC50/IC50)” value in the data set with SARS-COV-2 is recorded as 53.67. In the data set with SARS-COV-2 (setting [1]), the concentration for half-maximal inhibition (IC50) is 0.93 µM.

The record behind these values is patent US20240368104A1, “Novel Dialkoxynaphtho[2,3-C]Furan-1(3H)-One Derivatives and Pharmaceutical Composition For Preventing or Treating Respiratory Disease or SARS-COV-2 Infection Disease, Comprising Same” (priority 2021, published 2024).
